We go through seven compounds from patent US11497788B2, “Supramolecular glycosaminoglycans” (Northwestern University, priority 2015, dated 2022).

The subject of data set [1] is BMP-2 signaling in C2C12 cells. The experiment in a line: C2C12 osteoblast differentiation with BMP-2, alkaline phosphatase (ALP) activity. The following applies: for effect on BMP-2 activity / osteoblast differentiation (in words) / level of ALP expression relative to BMP-2 alone (factor): C2C12, BMP-2 75 ng/mL. Type of data set: cell-based, mouse. On the procedure:
(§1) C2C12 Cell Culture: C2C12 mouse myoblasts (ATCC) were maintained in Dulbecco's Modified Eagle's Medium with high glucose and L-glutamine (DMEM, ATCC), supplemented with 100 U/mL of penicillin and 100 μg/mL streptomycin (P/S, Life Technologies) and 10% heat inactivated FBS (Life Technologies), and passaged at 80-90% confluence. Media was changed every 2 days. Passages 3 to 8 were used for experiments. Cells were grown at 37° C., 5% CO2 in a humidified atmosphere. Cells were detached following a 3 minute incubation at 37° C. with 0.05% Trypsin-EDTA (Life Technologies), then resuspended in DMEM (10% FBS). Unless stated otherwise, cells were seeded at 75,000 cells/mL (400 μL/well in a 48-well plate), and allowed to attach for a minimum of 3 hours prior to experiments.
C2C12 Osteoblast Differentiation: PA samples were thermally annealed as described for Cryo-TEM. PA solutions were spun down, pipetted for homogeneous mixing, then diluted to 1 mM with DMEM (no FBS). In a 1.5 mL microcentrifuge tube, PA solutions were further diluted with DMEM (5% FBS), gently vortexed, and appropriate amounts of GFs (20 μg/mL) were added to yield [PA]=125 μM and [GF]=375 ng/mL. For mixing, the microcentrifuge tube was gently inverted several times by hand. Following, cells were treated by adding a 100 μl, of the PA/GF mixture per well (48-well plate), yielding a final 500 μl, differentiation medium with [PA]=25 μM and [GF]=75 ng/mL. For controls, the initial 5 mM PA solution was substituted with either PBS alone (saline) or heparin in PBS at appropriate concentrations. Cells were cultured for 3 days without changing the media, and osteoblast differentiation was assessed.
Alkaline Phosphatase Activity: Alkaline phosphatase (ALP) activity was measured as a marker of osteoblast differentiation (ref. 38; incorporated by reference in its entirety). On day 3, media was removed, and cells were lysed with a 100 μL, of M-PER Mammalian Protein Extraction Reagent (Life Technologies), supplemented with 1×Halt Protease Inhibitor Cocktail (Thermo Fisher Scientific), for 30 minutes on an orbital shaker. A 20 μL, volume of the cell lysate was incubated with 200 μL, of the QUANTI-Blue colorimetric ALP assay (InvivoGen) for 30 minutes to 2 hours at 37° C., in duplicates. The ALP activity was assessed by reading the OD at 630 nm with Cytation3 microplate reader (BioTek). Data were normalized to the respective endogenous DNA levels using Quant-iT PicoGreen dsDNA Assay Kit (Life Technologies). Two separate experiments with 4 replicates each were averaged for statistical analysis. […]

Data set [2] can be described thus: Zeta potential measurements. Type of data set: physicochemical. As to the method: Zeta Potential Measurements: Zeta (ζ) potential was measured using a Malvern Zetasizer Nano ZS (n=3). PA samples were thermally annealed as described for Cryo-TEM. Following, PAs were diluted to 0.5 mM in DMEM. PA solutions were water-bath sonicated for 1 min prior to zeta potential measurement. Background reading from DMEM alone was subtracted from the final measurements.

Data set [3] has as its system BMP-2, BMP-4, noggin, Shh, VEGF, FGF-1, FGF-2. The experiment in a line: Surface plasmon resonance (SPR) binding to immobilized heparin binding GFs. The following applies: analytes 50-500 nM; GFs immobilized on alginate surface; 25° C. Details: species or system human (Noggin murine). On the procedure: (§2) Surface Plasmon Resonance: The binding interactions between PAs (analytes) and growth factors (ligands) were analyzed via surface plasmon resonance (SPR) using a ProteON XPR36 system (Bio-Rad Laboratories). PA samples were thermally annealed as described for Cryo-TEM. PA solutions were spun down, pipetted for homogeneous mixing, and sequentially diluted to appropriate concentrations using Tween buffer (Milli-Q water, 0.05% Tween-20). Lyophilized powders of GFs were reconstituted to 5 μM without any carrier proteins according to the manufacturer's instructions. BMP-2, BMP-4, Shh, VEGF, and FGF-2 were further diluted to 200 nM in ProteOn Acetate Buffer pH 5.5, while FGF-1 was diluted to 200 nM in ProteOn Acetate Buffer pH 4.5. Noggin was diluted to 300 nM in ProteOn Acetate Buffer pH 5.5.
GFs were immobilized on a ProteOn GLC-Chip via amino coupling as described previously, with slight modifications (37). First, the alginate surface was activated with a freshly prepared mixture of 20 mM 1-Ethyl-3-[3-dimethylaminopropyl]carbodiimide hydrochloride (EDC) and 5 mM N-hydroxysulfosuccinimide (Sulfo-NHS) in Milli-Q water (vertical flow cells, 30 μL/min, 3 min). Following, GFs were immobilized on vertical flow cells 1 to 5 by perfusing a freshly prepared 200 nM (or 300 nM) solution over the activated alginate surface (30 μL/min, 5 min). Blank buffer was perfused on vertical cell 6 as a reference. The remaining esters were deactivated with 1 M ethanolamine (30 μL/min, 3 min). The association and dissociation phases were performed at 25° C. in Tween buffer. Prior to each analyte injection, the horizontal flow cells 1 to 6 were regenerated with 10 mM NaOH (100 μL/min, 30 sec) and washed once with Tween buffer (30 μL/min, 3 min). Varied analyte concentrations were injected to horizontal flow cells 1 to 5, with flow cell 6 as a reference (30 μL/min, 5 min), followed by dissociation with Tween buffer (30 μL/min, 10 min). For analysis, SPR sensorgram from the reference flow cell was subtracted from all measurement flow cells. Interaction data were evaluated using the BIAEvaluation 4.1 software. […]

The target of data set [4] is T1, BMP-2 (Homo sapiens, UniProt P12643).
T1 construct: purchased Medtronic Sofamor Danek (Minneapolis, Minn.)
T1 sequence (P12643 283-396): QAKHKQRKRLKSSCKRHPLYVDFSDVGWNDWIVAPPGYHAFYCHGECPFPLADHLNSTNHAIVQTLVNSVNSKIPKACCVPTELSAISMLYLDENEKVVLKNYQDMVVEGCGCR
The data set is described as follows: SPR binding to BMP-2. To be noted: azide-derivative, not assembled. As to the method: as §2
(§3) GFs were immobilized on a ProteOn GLC-Chip via amino coupling as described previously, with slight modifications (37). First, the alginate surface was activated with a freshly prepared mixture of 20 mM 1-Ethyl-3-[3-dimethylaminopropyl]carbodiimide hydrochloride (EDC) and 5 mM N-hydroxysulfosuccinimide (Sulfo-NHS) in Milli-Q water (vertical flow cells, 30 μL/min, 3 min). […] Interaction data were evaluated using the BIAEvaluation 4.1 software. […]
For orientation: In SPR one partner is held on a chip, and binding of the other changes the refractive index at the surface.

For another data set, the target named is T2, BMP-4 (Homo sapiens, UniProt P12644).
T2 construct: from E. coli were purchased from PeproTech, in their mature forms; purchased PeproTech; host or cells: E. coli
T2 sequence (P12644 293-408): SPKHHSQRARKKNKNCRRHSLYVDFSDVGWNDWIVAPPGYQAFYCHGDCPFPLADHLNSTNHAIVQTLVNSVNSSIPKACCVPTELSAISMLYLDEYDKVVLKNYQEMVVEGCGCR
The experiment in a line: SPR binding to BMP-4. To be noted: azide-derivative, not assembled. As to the method: as §2, §3

Data set [5] concerns BMP-4 signaling in C2C12 cells. The data set is described as follows: C2C12 osteoblast differentiation with BMP-4, ALP activity. The class given is cell-based, mouse. As to the method: as §1
C2C12 Osteoblast Differentiation: PA samples were thermally annealed as described for Cryo-TEM. PA solutions were spun down, pipetted for homogeneous mixing, then diluted to 1 mM with DMEM (no FBS). […] Cells were cultured for 3 days without changing the media, and osteoblast differentiation was assessed.
Alkaline Phosphatase Activity: Alkaline phosphatase (ALP) activity was measured as a marker of osteoblast differentiation (ref. 38; incorporated by reference in its entirety). […] The ALP activity was assessed by reading the OD at 630 nm with Cytation3 microplate reader (BioTek). […]

In data set [6] the target is T1, BMP-2. The data set is described as follows: BMP-2 stability assay (ELISA) in C2C12 culture. The class given is cell-based. To be noted: 75 ng/mL BMP-2; 0, 3, 9, 24 h. On the procedure:
BMP-2 Stability Assay: C2C12 cells were seeded at 150,000 cells/mL (500 μL/well in a 48-well plate) and incubated overnight. Following, the media was replaced with treatment media (75 ng/mL BMP-2 in the presence/absence of PA 1, PA 4, and monosaccharide 1. The media was collected at 0, 3, 9, and 24 h and stored at −80° C. prior to BMP-2 quantification. In addition, the cell monolayers were lysed at the indicated time with a 100 μL of M-PER Mammalian Protein Extraction Reagent, supplemented with 1×Halt Protease Inhibitor Cocktail, and also stored at −80° C. prior to BMP-2 quantification. The amount of BMP-2 present in the media and cell extracts was assayed using a BMP-2 Quantikine ELISA kit (R&D Systems) according to the manufacturer's specifications.
On the technique in general: An ELISA detects its analyte on a solid surface through an enzyme-linked reagent.

“Also recorded” adds a separate entry of the source. Residues, ends and D or L forms follow the SMILES beside them. Groups on a side chain read outwards from the residue. *: point of attachment. X1 = CC(=O)NC1C(O)[C@H](O)C(COS(=O)(=O)O)O[C@H]1OCCn1cc(CCC(=O)*)nn1; X2 = O=C(O)C1O[C@@H](OCCn2cc(CCC(=O)*)nn2)C(O)C(O)[C@@H]1O; Acetyl(2-(HOCH2CH2OCH2CH2O)) = O=C(COCCOCCO)*; AEEA = NCCOCCOCC(=O)O; Propionyl = CCC(=O)*

Turning to `CCC(=O)N[C@H](C(=O)N[C@H](C(=O)N[C@@H](C)C(=O)N[C@@H](C)C(=O)N[C@@H](CCC(=O)O)C(=O)N[C@@H](CCC(=O)O)C(=O)N[C@@H](CCCCNC(=O)COCCOCCNC(=O)CCc1cn(CCO[C@@H]2OC(COS(=O)(=O)O)[C@@H](O)C(O)C2NC(C)=O)nn1)C(N)=O)C(C)C)C(C)C` (stereo partly drawn) [PA 2, 6S-GlcNAc PA] (Propionyl-VVAAEEK([AEEA-X1])-NH2), the “increase in BMP-2 signaling (ALP activity)” value in data set [1] (nanofibers containing the monosulfated monosaccharide, density not stated, 25 μM PA, BMP-2 75 ng/mL) was 3 fold. Besides, the “zeta potential / net charge of nanofibers” value (“zeta potential / net charge” below) in data set [2] is listed as “comparable zeta potentials”.

`CCC(=O)N[C@H](C(=O)N[C@H](C(=O)N[C@@H](C)C(=O)N[C@@H](C)C(=O)N[C@@H](CCC(=O)O)C(=O)N[C@@H](CCC(=O)O)C(=O)N[C@@H](CCCCNC(=O)COCCOCCO)C(N)=O)C(C)C)C(C)C` [PA 5, OEG PA] (Propionyl-VVAAEEK(Acetyl(2-(HOCH2CH2OCH2CH2O)))-NH2): the “effect on BMP-2 activity / osteoblast differentiation (in words)” value in data set [1] (3 days) is “negligible effect”. Also, in data set [2], the “zeta potential / net charge” value is recorded as “screened the net negative charge”.

Turning to Heparan sulfate [reference compound], in data set [1] (3 days), the “effect on BMP-2 activity / osteoblast differentiation (in words)” value was “dose response increase” and the “level of ALP expression relative to BMP-2 alone (factor)” value is given as 3.

“2-Azidoethyl 2-acetamido-3,4,6-tri-O-sulfo-2-deoxy-β-D-glycopyranoside [monosaccharide 1]”: in data set [3], the “binding to heparin binding GFs (SPR)” value is on record as “essentially does not bind”. For the same compound, the “binding to BMP-2 (SPR)” value at BMP-2 [4] is recorded as “bound neither”. For the same compound, at BMP-4, the “binding to BMP-4 (SPR)” value is reported as “bound neither”. Besides, the “effect on BMP-2 activity / osteoblast differentiation (in words)” value in data set [1] (3 days) is recorded as “not to be the case”. Further, the “amplification of BMP-4 signaling” value in data set [5] was “not to be the case”. Besides, the “BMP-2 stability in cell culture media” value at BMP-2 [6] is “not”.

As to `CCC(=O)N[C@H](C(=O)N[C@H](C(=O)N[C@@H](C)C(=O)N[C@@H](C)C(=O)N[C@@H](CCC(=O)O)C(=O)N[C@@H](CCC(=O)O)C(N)=O)C(C)C)C(C)C` [PA 6, E2 PA] (Propionyl-VVAAEE-NH2), the “increase in ALP activity” value in data set [1] (PA 6 alone, 0% monosaccharide density, 25 μM PA, BMP-2 75 ng/mL, 3 days) is 5 fold.

On to heparin [reference compound], for which the “binding to heparin binding GFs (SPR)” value in data set [3] is “moderate binding”. In data set [1] (3 days), the “effect on BMP-2 activity / osteoblast differentiation (in words)” value was “dose response increase; also recorded: more potent response than HS” and the “level of ALP expression relative to BMP-2 alone (factor)” value amounted to 5.

`CCC(=O)N[C@H](C(=O)N[C@H](C(=O)N[C@@H](C)C(=O)N[C@@H](C)C(=O)N[C@@H](CCC(=O)O)C(=O)N[C@@H](CCC(=O)O)C(=O)N[C@@H](CCCCNC(=O)COCCOCCNC(=O)CCc1cn(CCO[C@@H]2OC(C(=O)O)[C@@H](O)C(O)C2O)nn1)C(N)=O)C(C)C)C(C)C` (stereo partly shown) [PA 3, GlcA PA] (Propionyl-VVAAEEK([AEEA-X2])-NH2): the “effect on BMP-2 activity / osteoblast differentiation (in words)” value in data set [1] (3 days) is “did not potentiate”. For the same compound, in data set [1] (incorporated at the level of 10% or higher in PA 6, 25 μM PA, BMP-2 75 ng/mL), the “ALP activity, PA co-assembled with PA 6” value is reported as “not to enhanced”. For the same compound, the “zeta potential / net charge” value in data set [2] is given as “comparable zeta potentials”.
